Test results: US8415469B2, “Compounds and methods for kinase modulation, and indications therefor” (Plexxikon Inc., priority 2005, dated 2013)

Experiments:
Type in all cases: biochemical
FGFR1 = target: T1, FGFR1 (Homo sapiens, UniProt P11362, C488A/C584S); assay: AlphaScreen kinase assay, FGFR1; conditions: read-out: IC50, activity toward kinase FGFR
T1 construct: P1351.pET N6 BI-PTP FGFR A458-E765-X C488A, C584S; made in house; host or cells: E. coli (PTP1B co-expressed)

IKK beta = target: T2, IKK beta (Homo sapiens, UniProt O14920); assay: AlphaScreen kinase assay, IKK beta; conditions: read-out: IC50, activity toward kinase IKK beta
T2 sequence (O14920 1-756): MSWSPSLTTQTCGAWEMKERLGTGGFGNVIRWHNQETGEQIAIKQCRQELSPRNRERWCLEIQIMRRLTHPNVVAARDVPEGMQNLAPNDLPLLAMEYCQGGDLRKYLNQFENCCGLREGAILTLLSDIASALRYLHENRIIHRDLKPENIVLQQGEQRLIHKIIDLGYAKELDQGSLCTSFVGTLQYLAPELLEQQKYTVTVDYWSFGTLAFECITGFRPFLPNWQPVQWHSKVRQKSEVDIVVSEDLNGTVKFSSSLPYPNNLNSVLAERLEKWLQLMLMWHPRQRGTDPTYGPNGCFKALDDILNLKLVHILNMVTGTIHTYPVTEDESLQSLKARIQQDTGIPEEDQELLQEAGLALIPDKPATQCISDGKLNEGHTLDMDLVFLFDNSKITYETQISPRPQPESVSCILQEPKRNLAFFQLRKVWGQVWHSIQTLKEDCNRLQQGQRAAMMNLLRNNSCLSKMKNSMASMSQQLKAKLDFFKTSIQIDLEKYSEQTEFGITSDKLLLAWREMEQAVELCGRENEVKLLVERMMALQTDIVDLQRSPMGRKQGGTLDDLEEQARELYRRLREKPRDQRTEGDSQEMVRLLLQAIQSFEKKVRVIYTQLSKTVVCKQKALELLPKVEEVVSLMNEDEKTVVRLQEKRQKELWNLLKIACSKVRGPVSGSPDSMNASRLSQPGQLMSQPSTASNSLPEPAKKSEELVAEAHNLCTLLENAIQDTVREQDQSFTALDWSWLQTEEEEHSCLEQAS

B-Raf V600E = target: T3, B-Raf V600E (Homo sapiens, UniProt P15056, V600E); assay: AlphaScreen kinase assay, B-Raf V600E; conditions: read-out: IC50, activity toward kinase B-Raf V600E
T3 construct: P4254. pFastBacBD-CDC37 BRAF D437-K722-X, V600E; His6 with pFastBac HT leader (TEV site) (N); made in house; host or cells: Sf9 (baculovirus; chaperone CDC37 co-expressed)
T3 sequence (P15056 with tags, fused parts or gaps V600E): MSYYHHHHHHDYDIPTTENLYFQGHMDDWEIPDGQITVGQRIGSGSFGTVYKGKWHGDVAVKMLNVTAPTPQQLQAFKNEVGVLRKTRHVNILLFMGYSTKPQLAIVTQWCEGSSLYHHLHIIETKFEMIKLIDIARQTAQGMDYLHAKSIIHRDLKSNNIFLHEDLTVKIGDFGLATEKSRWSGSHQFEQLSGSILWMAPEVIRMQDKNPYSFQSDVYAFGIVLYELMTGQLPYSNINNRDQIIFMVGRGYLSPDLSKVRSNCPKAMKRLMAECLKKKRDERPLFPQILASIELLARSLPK

B-Raf = target: T4, B-Raf (Homo sapiens, UniProt P15056); assay: AlphaScreen kinase assay, B-Raf; conditions: read-out: IC50, activity toward kinase B-Raf
T4 construct: purchased Upstate Biotechnology
T4 sequence (P15056 whole entry): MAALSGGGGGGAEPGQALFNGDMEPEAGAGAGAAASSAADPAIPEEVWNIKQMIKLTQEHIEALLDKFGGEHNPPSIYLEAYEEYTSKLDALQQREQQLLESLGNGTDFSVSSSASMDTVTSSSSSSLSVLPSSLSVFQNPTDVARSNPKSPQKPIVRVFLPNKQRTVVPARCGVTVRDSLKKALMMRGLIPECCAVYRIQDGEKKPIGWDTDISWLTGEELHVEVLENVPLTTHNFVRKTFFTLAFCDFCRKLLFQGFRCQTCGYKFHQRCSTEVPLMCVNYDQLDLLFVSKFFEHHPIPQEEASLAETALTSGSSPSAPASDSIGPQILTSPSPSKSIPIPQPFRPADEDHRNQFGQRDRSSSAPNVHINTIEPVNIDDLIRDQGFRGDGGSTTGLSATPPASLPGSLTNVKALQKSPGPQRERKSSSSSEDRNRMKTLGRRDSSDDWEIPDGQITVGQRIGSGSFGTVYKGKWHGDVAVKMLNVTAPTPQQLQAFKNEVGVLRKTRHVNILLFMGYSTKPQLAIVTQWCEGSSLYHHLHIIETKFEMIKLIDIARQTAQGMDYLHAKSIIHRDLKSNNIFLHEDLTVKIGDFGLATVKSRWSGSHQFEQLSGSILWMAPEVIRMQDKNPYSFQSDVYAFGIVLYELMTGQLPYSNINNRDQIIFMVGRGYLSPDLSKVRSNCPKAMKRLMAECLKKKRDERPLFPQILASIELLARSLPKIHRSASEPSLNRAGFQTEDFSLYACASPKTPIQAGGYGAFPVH

MAP4K4 = MAP4K4 (Homo sapiens, UniProt O95819); assay: AlphaScreen kinase assay, MAP4K4; conditions: read-out: IC50, activity toward kinase MAP4K4
c-Raf-1 = target: T5, c-Raf-1 (Homo sapiens, UniProt P04049); assay: AlphaScreen kinase assay, c-Raf-1; conditions: read-out: IC50, activity toward kinase c-Raf-1
T5 construct: purchased Upstate Biotechnology

Stk6 = target: T6, Stk6 (Homo sapiens, UniProt O14965); assay: Z'-Lyte FRET kinase assay (Invitrogen), Stk6; conditions: read-out: IC50, activity toward kinase Stk6
T6 construct: purchased Invitrogen (Carlsbad, Calif.), screening service
T6 sequence (O14965 1-403): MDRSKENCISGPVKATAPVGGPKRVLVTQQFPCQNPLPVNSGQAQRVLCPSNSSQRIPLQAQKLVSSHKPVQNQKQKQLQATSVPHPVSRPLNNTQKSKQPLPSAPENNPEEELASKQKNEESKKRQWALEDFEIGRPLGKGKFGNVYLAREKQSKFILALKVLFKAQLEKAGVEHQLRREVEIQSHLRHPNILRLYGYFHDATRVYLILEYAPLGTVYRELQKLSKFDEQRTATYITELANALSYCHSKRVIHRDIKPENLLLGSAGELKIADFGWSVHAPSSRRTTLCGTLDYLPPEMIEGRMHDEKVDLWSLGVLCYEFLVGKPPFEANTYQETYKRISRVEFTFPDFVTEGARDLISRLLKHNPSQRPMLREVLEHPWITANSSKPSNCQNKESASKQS

Kdr = target: T7, Kdr (Homo sapiens, UniProt P35968); assay: Z'-Lyte FRET kinase assay (Invitrogen), Kdr; conditions: read-out: IC50, activity toward kinase Kdr
T7 construct: purchased Invitrogen (assay run by Invitrogen)
T7 sequence (P35968 20-1356): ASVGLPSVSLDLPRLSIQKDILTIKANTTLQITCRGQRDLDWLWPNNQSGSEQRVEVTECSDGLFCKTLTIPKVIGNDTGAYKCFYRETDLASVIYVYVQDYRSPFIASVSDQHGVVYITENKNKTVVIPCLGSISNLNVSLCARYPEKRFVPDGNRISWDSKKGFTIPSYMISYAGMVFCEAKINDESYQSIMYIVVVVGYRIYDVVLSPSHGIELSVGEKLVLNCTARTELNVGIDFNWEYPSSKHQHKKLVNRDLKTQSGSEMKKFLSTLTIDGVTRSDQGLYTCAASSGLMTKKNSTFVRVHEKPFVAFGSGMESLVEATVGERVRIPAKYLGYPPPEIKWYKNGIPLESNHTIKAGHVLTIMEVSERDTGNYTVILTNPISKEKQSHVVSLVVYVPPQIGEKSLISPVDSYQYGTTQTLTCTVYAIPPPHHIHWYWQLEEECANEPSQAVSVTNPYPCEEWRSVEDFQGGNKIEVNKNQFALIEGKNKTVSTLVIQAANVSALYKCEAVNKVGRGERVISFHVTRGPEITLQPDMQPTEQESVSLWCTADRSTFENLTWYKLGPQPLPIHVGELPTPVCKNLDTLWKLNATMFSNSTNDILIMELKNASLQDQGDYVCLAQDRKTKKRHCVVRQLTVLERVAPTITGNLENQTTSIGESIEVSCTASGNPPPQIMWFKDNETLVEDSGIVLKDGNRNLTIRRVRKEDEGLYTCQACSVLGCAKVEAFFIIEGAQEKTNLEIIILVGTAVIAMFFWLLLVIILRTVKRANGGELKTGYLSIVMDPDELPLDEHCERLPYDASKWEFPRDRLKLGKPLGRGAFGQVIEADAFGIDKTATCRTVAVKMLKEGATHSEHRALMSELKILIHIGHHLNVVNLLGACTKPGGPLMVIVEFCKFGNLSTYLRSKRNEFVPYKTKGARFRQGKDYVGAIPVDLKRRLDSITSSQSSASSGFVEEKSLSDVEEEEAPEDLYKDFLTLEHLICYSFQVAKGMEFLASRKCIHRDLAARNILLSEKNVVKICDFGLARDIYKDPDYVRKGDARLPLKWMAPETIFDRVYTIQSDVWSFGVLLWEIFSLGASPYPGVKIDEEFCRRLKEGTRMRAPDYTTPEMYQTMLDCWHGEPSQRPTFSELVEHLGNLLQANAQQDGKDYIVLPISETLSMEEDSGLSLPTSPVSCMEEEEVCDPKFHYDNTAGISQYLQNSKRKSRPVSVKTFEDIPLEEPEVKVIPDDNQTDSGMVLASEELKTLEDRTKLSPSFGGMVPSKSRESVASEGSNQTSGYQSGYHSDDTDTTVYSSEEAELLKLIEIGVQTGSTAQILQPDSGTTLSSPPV

Ret = target: T8, Ret (Homo sapiens, UniProt P07949); assay: AlphaScreen kinase assay, Ret; conditions: read-out: IC50, activity toward kinase Ret
T8 construct: P1378.pET-SF BI-PTP RET H661-R1012 HIS; made in house
T8 sequence (P07949 with tags, fused parts or gaps): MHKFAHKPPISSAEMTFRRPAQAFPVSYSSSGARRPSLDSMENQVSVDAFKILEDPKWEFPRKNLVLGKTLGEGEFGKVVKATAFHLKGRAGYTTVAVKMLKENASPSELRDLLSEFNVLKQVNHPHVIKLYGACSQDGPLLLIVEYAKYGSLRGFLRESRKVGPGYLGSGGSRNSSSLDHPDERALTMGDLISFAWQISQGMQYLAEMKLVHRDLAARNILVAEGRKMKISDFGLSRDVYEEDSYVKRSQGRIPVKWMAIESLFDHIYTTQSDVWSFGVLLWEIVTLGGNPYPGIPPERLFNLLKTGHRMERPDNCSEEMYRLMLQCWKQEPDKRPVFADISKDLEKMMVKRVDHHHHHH

Kit = target: T9, Kit (Homo sapiens, UniProt P10721); assay: AlphaScreen kinase assay, Kit; conditions: read-out: IC50, activity toward kinase Kit
T9 construct: P1332.N6 BI PTP KIT M552-K948-X COD; His6 (N); made in house; host or cells: E. coli (PTP1B co-expressed)
T9 sequence (P10721 with tags, fused parts or gaps): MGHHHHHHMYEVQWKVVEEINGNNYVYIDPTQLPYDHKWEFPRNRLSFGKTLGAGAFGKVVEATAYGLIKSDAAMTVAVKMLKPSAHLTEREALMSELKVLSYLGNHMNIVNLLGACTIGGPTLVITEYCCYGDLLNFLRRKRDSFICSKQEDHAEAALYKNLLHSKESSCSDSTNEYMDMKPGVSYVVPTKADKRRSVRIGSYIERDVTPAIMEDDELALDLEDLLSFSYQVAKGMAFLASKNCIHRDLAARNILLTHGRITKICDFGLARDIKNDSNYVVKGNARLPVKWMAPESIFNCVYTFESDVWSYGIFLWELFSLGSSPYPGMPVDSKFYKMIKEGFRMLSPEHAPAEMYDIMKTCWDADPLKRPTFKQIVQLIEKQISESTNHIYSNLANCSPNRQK

Jnk3 = target: T10, Jnk3 (Homo sapiens, UniProt P53779); assay: AlphaScreen kinase assay, Jnk3; conditions: read-out: IC50, activity toward kinase Jnk3
T10 construct: purchased Upstate Biotechnology
T10 sequence (P53779 whole entry): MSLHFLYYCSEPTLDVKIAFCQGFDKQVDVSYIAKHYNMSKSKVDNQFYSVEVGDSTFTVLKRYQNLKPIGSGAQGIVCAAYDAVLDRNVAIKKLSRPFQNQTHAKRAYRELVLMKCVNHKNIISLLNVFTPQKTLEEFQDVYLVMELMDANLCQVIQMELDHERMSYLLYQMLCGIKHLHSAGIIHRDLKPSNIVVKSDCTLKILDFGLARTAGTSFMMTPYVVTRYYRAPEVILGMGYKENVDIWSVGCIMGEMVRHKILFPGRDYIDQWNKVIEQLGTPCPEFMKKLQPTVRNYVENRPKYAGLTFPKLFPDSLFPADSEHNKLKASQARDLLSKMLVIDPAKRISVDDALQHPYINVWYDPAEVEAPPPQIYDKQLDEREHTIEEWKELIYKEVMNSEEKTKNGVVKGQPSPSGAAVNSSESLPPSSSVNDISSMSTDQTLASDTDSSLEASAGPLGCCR

Akt3 = Akt3 (Homo sapiens, UniProt Q9Y243); assay: AlphaScreen kinase assay, Akt3; conditions: read-out: IC50, activity toward kinase Akt3
Sequence of Akt3 (Q9Y243 whole entry): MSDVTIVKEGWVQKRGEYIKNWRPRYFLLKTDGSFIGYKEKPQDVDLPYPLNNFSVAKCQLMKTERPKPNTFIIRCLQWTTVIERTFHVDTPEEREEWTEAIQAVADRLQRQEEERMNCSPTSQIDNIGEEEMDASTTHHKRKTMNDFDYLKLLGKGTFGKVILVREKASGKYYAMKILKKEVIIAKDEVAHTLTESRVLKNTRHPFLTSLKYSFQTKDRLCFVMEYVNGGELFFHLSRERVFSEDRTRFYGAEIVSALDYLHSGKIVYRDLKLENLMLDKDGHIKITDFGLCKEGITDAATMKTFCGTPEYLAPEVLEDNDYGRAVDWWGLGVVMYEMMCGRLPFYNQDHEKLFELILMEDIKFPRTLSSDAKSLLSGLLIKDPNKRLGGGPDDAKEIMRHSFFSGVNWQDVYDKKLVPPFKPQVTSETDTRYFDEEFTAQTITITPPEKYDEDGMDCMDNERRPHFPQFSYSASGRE
Outline: (§1)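 Kinase activity was measured as phosphorylation of a biotinylated peptide, detected with streptavidin donor and phospho-antibody acceptor beads. Compounds, from 20 mM DMSO stocks, were tested at eight concentrations in 1:3 serial dilution.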

Flt1 = target: T11, Flt1 (Homo sapiens, UniProt P17948); assay: AlphaScreen kinase assay, Flt1; conditions: read-out: IC50, activity toward kinase Flt1
T11 construct: P1826.pETN6 BI-PTP FLT1 M799-D1165-X WT; His6 (N); made in house; host or cells: E. coli (PTP1B co-expressed)
T11 sequence (P17948 with tags, fused parts or gaps): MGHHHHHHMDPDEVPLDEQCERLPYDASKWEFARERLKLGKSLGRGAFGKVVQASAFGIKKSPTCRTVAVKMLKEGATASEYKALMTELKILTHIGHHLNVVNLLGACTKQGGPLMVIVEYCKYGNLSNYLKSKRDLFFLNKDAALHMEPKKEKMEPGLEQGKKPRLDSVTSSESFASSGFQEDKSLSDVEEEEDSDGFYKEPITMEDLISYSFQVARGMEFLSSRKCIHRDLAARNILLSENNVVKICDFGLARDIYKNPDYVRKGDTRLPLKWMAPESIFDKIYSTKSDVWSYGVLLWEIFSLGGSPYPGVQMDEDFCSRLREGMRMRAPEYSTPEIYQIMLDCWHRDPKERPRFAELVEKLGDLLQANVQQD

Met = target: T12, Met (Homo sapiens, UniProt P08581); assay: AlphaScreen kinase assay, Met; conditions: read-out: IC50, activity toward kinase Met
T12 construct: P1818.pETN6 BI-PTP MET G1056-G1364-X WT; His6 (N); made in house; host or cells: E. coli (PTP1B co-expressed)
T12 sequence (P08581 with tags, fused parts or gaps): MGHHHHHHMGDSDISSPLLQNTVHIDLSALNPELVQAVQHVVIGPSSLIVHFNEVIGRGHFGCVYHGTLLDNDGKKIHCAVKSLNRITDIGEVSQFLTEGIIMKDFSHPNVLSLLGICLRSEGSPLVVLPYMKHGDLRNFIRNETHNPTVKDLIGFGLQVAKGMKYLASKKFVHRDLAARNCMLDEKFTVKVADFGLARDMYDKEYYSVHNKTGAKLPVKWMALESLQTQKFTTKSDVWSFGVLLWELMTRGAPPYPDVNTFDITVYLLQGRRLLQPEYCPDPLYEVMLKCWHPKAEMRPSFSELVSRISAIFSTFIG
Outline: as §1

MAP2K1 = target: T13, MAP2K1 (Homo sapiens, UniProt Q02750); assay: Z'-Lyte FRET kinase assay (Invitrogen), MAP2K1; conditions: read-out: IC50, activity toward kinase MAP2K1
T13 construct: purchased Invitrogen (assay run by Invitrogen)
T13 sequence (Q02750 whole entry): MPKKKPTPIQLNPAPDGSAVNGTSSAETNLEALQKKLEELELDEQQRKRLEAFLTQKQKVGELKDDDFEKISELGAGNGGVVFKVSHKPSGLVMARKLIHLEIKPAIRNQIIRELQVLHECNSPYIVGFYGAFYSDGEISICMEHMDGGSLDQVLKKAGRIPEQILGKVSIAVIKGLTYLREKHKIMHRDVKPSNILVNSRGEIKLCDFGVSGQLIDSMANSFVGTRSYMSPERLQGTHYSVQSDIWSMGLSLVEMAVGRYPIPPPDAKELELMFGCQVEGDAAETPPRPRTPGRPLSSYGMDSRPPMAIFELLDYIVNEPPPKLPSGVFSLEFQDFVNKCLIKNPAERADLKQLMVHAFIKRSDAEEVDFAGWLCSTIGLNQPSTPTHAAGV

Btk = target: T14, Btk (Homo sapiens, UniProt Q06187); assay: Z'-Lyte FRET kinase assay (Invitrogen), Btk; conditions: read-out: IC50, activity toward kinase Btk
T14 construct: purchased Invitrogen (assay run by Invitrogen)

Measured: IC50

T1 sequence (P11362 458-765 C488A/C584S): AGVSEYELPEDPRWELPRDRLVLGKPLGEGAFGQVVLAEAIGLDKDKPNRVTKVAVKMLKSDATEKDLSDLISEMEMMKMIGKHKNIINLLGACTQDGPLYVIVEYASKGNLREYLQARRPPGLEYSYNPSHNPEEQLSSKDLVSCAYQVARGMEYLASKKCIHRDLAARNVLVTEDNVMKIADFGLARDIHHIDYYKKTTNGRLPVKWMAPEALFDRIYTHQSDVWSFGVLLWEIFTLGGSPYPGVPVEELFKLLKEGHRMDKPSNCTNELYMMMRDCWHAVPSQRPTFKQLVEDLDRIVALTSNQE

CCCNS(=O)(=O)c1ccc(F)c(C(=O)c2c[nH]c3ncc(-c4cccnc4)cc23)c1F [Compound P-0896]
≤ 10 µM: FGFR1 | IKK beta | B-Raf V600E | B-Raf | MAP4K4 | c-Raf-1

CCS(=O)(=O)c1ccc(-c2c[nH]c3ncccc23)cc1 [Compound P-0272]
≤ 10 µM: Stk6 | IKK beta

Cc1nc(-c2ccnc3[nH]ccc23)no1 [Compound P-0163]
≤ 10 µM: Stk6 | Kdr | IKK beta

N#CCc1ccc(-c2c[nH]c3ncccc23)cc1 [Compound P-0164]
≤ 10 µM: Stk6 | Kdr | IKK beta

CS(=O)(=O)c1ccc(-c2cnc3[nH]ccc3c2)cc1 [Compound P-0682]
≤ 10 µM: IKK beta | Ret | Kit | Jnk3

c1ccc2sc(-c3ccnc4[nH]ccc34)cc2c1 [Compound P-0404]
≤ 10 µM: Akt3 | FGFR1 | IKK beta | Flt1 | Kit

Cc1cc(-c2c(C)[nH]c3ncccc23)ccc1F [Compound P-0376]
≤ 10 µM: Kdr | IKK beta

Fc1cc(F)cc(-c2ccnc3[nH]cc(Sc4ccc(Cl)cc4)c23)c1 [Compound P-0172]
≤ 10 µM: Stk6 | Kdr | IKK beta

Nc1cccc(C(=O)c2c[nH]c3ncccc23)c1 [Compound P-0096]
≤ 10 µM: Kdr | FGFR1 | IKK beta | Ret

c1cc2cc(-c3ccsc3)cnc2[nH]1 [Compound P-0133]
≤ 10 µM: Stk6 | Kdr | IKK beta | Kit | Jnk3

CN(C)c1ccc(Nc2cnc3[nH]ccc3c2)cc1 [Compound P-0962]
≤ 10 µM: Akt3 | Kdr | IKK beta | B-Raf V600E | Met | Flt1 | Kit | Jnk3

C=Cc1ccc(-c2ccnc3[nH]ccc23)cc1 [Compound P-0098]
≤ 10 µM: Stk6 | Kdr | IKK beta | MAP2K1

CS(=O)(=O)c1ccc(-c2c[nH]c3ncccc23)cc1 [Compound P-0177]
≤ 10 µM: Stk6 | Kdr | IKK beta | Flt1 | MAP2K1

C(#Cc1ccnc2[nH]ccc12)c1ccccc1 [Compound P-0436]
≤ 10 µM: Stk6 | Akt3 | IKK beta

Cc1ccc(-c2ccnc3[nH]ccc23)cc1N [Compound P-0111]
≤ 10 µM: Stk6 | Kdr | IKK beta | MAP2K1

Clc1ccc(-c2ccnc3[nH]ccc23)cn1 [Compound P-0127]
≤ 10 µM: Stk6 | Akt3 | Kdr | IKK beta | Flt1 | Kit

COc1cccc(C(=O)c2c[nH]c3nccc(-c4ccc(C(N)=O)cc4)c23)c1 [Compound P-0073]
≤ 10 µM: Kdr | FGFR1 | IKK beta | B-Raf V600E | Ret | Btk

COc1cccc(-c2c[nH]c3ncccc23)c1 [Compound P-0216]
≤ 10 µM: Kdr | IKK beta | Kit

c1csc(-c2cnc3[nH]ccc3c2)c1 [Compound P-0179]
≤ 10 µM: Stk6 | Kdr | IKK beta | Ret | Kit | Jnk3
